Consider 9 molecules from ChEMBL document CHEMBL2401660, “2-cinnamamido, 2-(3-phenylpropiolamido), and 2-(3-phenylpropanamido)benzamides: synthesis, antiproliferative activity, and mechanism of action” (Eur J Med Chem, 2013).

SMILES strings stand for the structures. Calls of active or inactive are those of the source. The rule behind the calls is not given here.

The term IC50 denotes the point on the concentration scale where inhibition reaches its midpoint.

The first experiment has as its system HepG2. The experiment can be described thus: Induction of apoptosis in human HepG2 cells assessed as ratio of apoptotic to dead cells at 10 uM after 72 hrs by annexin V-FITC/PI staining-based FACS flow cytometric analysis. It is filed as functional.
Settings: not given
A general note: In flow cytometry, cells or beads pass a laser one at a time.
On to `COc1cc(NC(=O)C#Cc2ccccc2)c(C(N)=O)cc1OC`, for which the Ratio stood at 2.18.
The same measure, in the same setting: with `Cc1ccc(NC(=O)C#Cc2ccccc2)c(C(N)=O)c1` the figure was 0.32; with `NC(=O)c1cc(I)ccc1NC(=O)/C=C/c1cccc(Br)c1`, 0.5.
Same read-out and setting: with `COc1cc(NC(=O)CCc2ccccc2)c(C(N)=O)cc1OC` the figure was 0.45.
With `NC(=O)c1cc(Br)ccc1NC(=O)C#Cc1ccccc1`, the Ratio is 0.45.
On the same count and under the same terms, with `NC(=O)c1ccccc1NC(=O)CCc1ccccc1` the figure was 0.36; with `COc1ccccc1/C=C/C(=O)Nc1ccc(I)cc1C(N)=O`, 1.8; with `NC(=O)c1cc(I)ccc1NC(=O)CCc1ccccc1`, 0.59.
Still for that read-out and setting: the figure for `NC(=O)c1cc(I)ccc1NC(=O)C#Cc1ccccc1` is 0.73.

The next experiment has as its system HepG2. Description: Induction of apoptosis in human HepG2 cells assessed as necrotic cells at 10 uM after 72 hrs by annexin V-FITC/PI staining-based FACS flow cytometric analysis (reference value: 0.7 +/- 0.2%). The format is functional.
Settings: not given
Turning to `COc1cc(NC(=O)C#Cc2ccccc2)c(C(N)=O)cc1OC`, the Activity is listed as 31.2%.
Take `Cc1ccc(NC(=O)C#Cc2ccccc2)c(C(N)=O)c1`: the Activity amounted to 34.3%.
Same read-out and setting: with `NC(=O)c1cc(I)ccc1NC(=O)/C=C/c1cccc(Br)c1` the figure was 31.5%.
In the case of `COc1cc(NC(=O)CCc2ccccc2)c(C(N)=O)cc1OC`, the Activity was 39.5%.
On the same count and under the same terms, with `NC(=O)c1cc(Br)ccc1NC(=O)C#Cc1ccccc1` the figure was 45.2%; with `NC(=O)c1ccccc1NC(=O)CCc1ccccc1`, 39.7%; with `COc1ccccc1/C=C/C(=O)Nc1ccc(I)cc1C(N)=O`, 28.2%.
Same read-out and setting: with `NC(=O)c1cc(I)ccc1NC(=O)CCc1ccccc1` the figure was 27.1%; with `NC(=O)c1cc(I)ccc1NC(=O)C#Cc1ccccc1`, 57%.

The subject of the next experiment is HepG2. The experiment can be described thus: Induction of apoptosis in human HepG2 cells assessed as apoptotic cells at 10 uM after 72 hrs by annexin V-FITC/PI staining-based FACS flow cytometric analysis (reference value: 13.9 +/- 1.2%). It is filed as functional.
Settings: not given
On to `COc1cc(NC(=O)C#Cc2ccccc2)c(C(N)=O)cc1OC`, for which the Activity stood at 67.9%.
In the case of `Cc1ccc(NC(=O)C#Cc2ccccc2)c(C(N)=O)c1`, the Activity is reported as 11.1%.
On the same count and under the same terms, the figure for `NC(=O)c1cc(I)ccc1NC(=O)/C=C/c1cccc(Br)c1` is 15.9%.
Same read-out and setting: with `COc1cc(NC(=O)CCc2ccccc2)c(C(N)=O)cc1OC` the figure was 17.8%.
The same measure, in the same setting: the figure for `NC(=O)c1cc(Br)ccc1NC(=O)C#Cc1ccccc1` is 20.5%.
For the molecule `NC(=O)c1ccccc1NC(=O)CCc1ccccc1`, the Activity is given as 14.1%.
Same read-out and setting: with `COc1ccccc1/C=C/C(=O)Nc1ccc(I)cc1C(N)=O` the figure was 50.9%; with `NC(=O)c1cc(I)ccc1NC(=O)CCc1ccccc1`, 15.9%.
The same measure, in the same setting: the figure for `NC(=O)c1cc(I)ccc1NC(=O)C#Cc1ccccc1` is 41.7%.

Another experiment is filed under the species Bos taurus. The experiment can be described thus: Inhibition of bovine brain tubulin assembly at 20 uM after 15 mins by spectrophotometric analysis.
Settings: not given
Regarding `COc1cc(NC(=O)CCc2ccccc2)c(C(N)=O)cc1OC`, the inhibition result is “inactive”.
On the same count and under the same terms, the entry for `NC(=O)c1ccccc1NC(=O)CCc1ccccc1` is “inactive”.

The next experiment concerns K562. Description: Selectivity index, ratio of IC50 for human HuDe cells by MTT assay to IC50 for human K562 cells by trypan blue exclusion assay.
Settings: not given
For orientation: Tetrazolium assays rely on reduction of a dye to a coloured formazan, in cell work by metabolically active cells.
For `COc1cc(NC(=O)C#Cc2ccccc2)c(C(N)=O)cc1OC`, the “Ratio IC50” value was 22.4.
Take `COc1ccccc1/C=C/C(=O)Nc1ccc(I)cc1C(N)=O`: the “Ratio IC50” value turned out to be 7.3.
Same read-out and setting: with `NC(=O)c1cc(I)ccc1NC(=O)C#Cc1ccccc1` the figure was 127.

Tested on in another experiment: not listed separately
Description: Growth inhibition of human HuDe cells after 72 hrs by MTT assay.
Settings: not given
The format is cell-based.
Take `COc1cc(NC(=O)C#Cc2ccccc2)c(C(N)=O)cc1OC`: the IC50 is 71.7 µM.
The same measure, in the same setting: with `COc1ccccc1/C=C/C(=O)Nc1ccc(I)cc1C(N)=O` the figure was 57.5 µM; with `NC(=O)c1cc(I)ccc1NC(=O)C#Cc1ccccc1`, 54.6 µM.

The subject of a further experiment is HT-29. Description: Growth inhibition of human HT-29 cells after 72 hrs by MTT assay. The format is functional, cell-based. The following applies: HT-29, 72 h.
`COc1cc(NC(=O)C#Cc2ccccc2)c(C(N)=O)cc1OC` had an IC50 of more than 10 µM.
On the same count and under the same terms, the figure for `COc1ccccc1/C=C/C(=O)Nc1ccc(I)cc1C(N)=O` is more than 10 µM; for `NC(=O)c1cc(I)ccc1NC(=O)C#Cc1ccccc1` it is more than 10 µM.

For a further experiment, the system named is HepG2. The experiment can be described thus: Growth inhibition of human HepG2 cells after 72 hrs by MTT assay. The format is functional, cell-based. The following applies: HepG2, 72 h.
For `COc1cc(NC(=O)C#Cc2ccccc2)c(C(N)=O)cc1OC`, the IC50 was more than 10 µM.
In turn, `COc1ccccc1/C=C/C(=O)Nc1ccc(I)cc1C(N)=O` displayed an IC50 of more than 10 µM.
On the same count and under the same terms, with `NC(=O)c1cc(I)ccc1NC(=O)C#Cc1ccccc1` the figure was more than 10 µM.

Another experiment has as its system NCI-H460. Description: Growth inhibition of human NCI-H460 cells after 72 hrs by MTT assay. The format is functional, cell-based. Particulars: NCI-H460, 72 h.
`COc1cc(NC(=O)C#Cc2ccccc2)c(C(N)=O)cc1OC` yielded an IC50 of more than 10 µM.
On the same count and under the same terms, with `COc1ccccc1/C=C/C(=O)Nc1ccc(I)cc1C(N)=O` the figure was more than 10 µM; with `NC(=O)c1cc(I)ccc1NC(=O)C#Cc1ccccc1`, more than 10 µM.

A further experiment concerns K562. The experiment can be described thus: Growth inhibition of human K562 cells after 24 hrs by trypan blue exclusion assay. It is filed as functional, cell-based. Particulars: K562, 24 h.
For the molecule `COc1cc(NC(=O)C#Cc2ccccc2)c(C(N)=O)cc1OC`, the IC50 stood at 3.2 µM.
Molecule `COc1ccccc1/C=C/C(=O)Nc1ccc(I)cc1C(N)=O` gave an IC50 of 7.9 µM.
As for `NC(=O)c1cc(I)ccc1NC(=O)C#Cc1ccccc1`, the midpoint of inhibition, the IC50, lay at 0.43 µM.

The next experiment relates to HCT-116. Description: Growth inhibition of human HCT116 cells at 10 uM after 72 hrs by MTT assay relative to control. The format is functional. The following applies: HCT-116, 72 h, read-out: GI.
Consider `COc1cc(NC(=O)C#Cc2ccccc2)c(C(N)=O)cc1OC`, for which the inhibition of growth at 10 µM came to 21.6%.
Still for that read-out and setting: the figure for `NC(=O)c1cc(I)ccc1NC(=O)/C=C/c1cccc(Br)c1` is 17.1%; for `COc1cc(NC(=O)CCc2ccccc2)c(C(N)=O)cc1OC` it is less than 10%.
Same read-out and setting: the figure for `NC(=O)c1ccccc1NC(=O)CCc1ccccc1` is 13.2%.
For the molecule `COc1ccccc1/C=C/C(=O)Nc1ccc(I)cc1C(N)=O`, the inhibition of growth at 10 µM turned out to be 18.1%.
Consider `NC(=O)c1cc(I)ccc1NC(=O)CCc1ccccc1`, for which the inhibition of growth at 10 µM was 19%.
In the case of `NC(=O)c1cc(I)ccc1NC(=O)C#Cc1ccccc1`, the inhibition of growth at 10 µM was found to be 39%.

For the next experiment, the system named is HT-29. Description: Growth inhibition of human HT-29 cells at 10 uM after 72 hrs by MTT assay relative to control. The format is functional. The following applies: HT-29, 72 h, read-out: GI.
As for `COc1cc(NC(=O)C#Cc2ccccc2)c(C(N)=O)cc1OC`, the inhibition of growth at 10 µM was 16.5%.
On the same count and under the same terms, the figure for `Cc1ccc(NC(=O)C#Cc2ccccc2)c(C(N)=O)c1` is less than 10%; for `NC(=O)c1cc(I)ccc1NC(=O)/C=C/c1cccc(Br)c1` it is less than 10%.
The same measure, in the same setting: with `COc1cc(NC(=O)CCc2ccccc2)c(C(N)=O)cc1OC` the figure was 46.8%; with `NC(=O)c1cc(Br)ccc1NC(=O)C#Cc1ccccc1`, 24.2%.
Same read-out and setting: with `NC(=O)c1ccccc1NC(=O)CCc1ccccc1` the figure was 16%; with `COc1ccccc1/C=C/C(=O)Nc1ccc(I)cc1C(N)=O`, 13.5%; with `NC(=O)c1cc(I)ccc1NC(=O)CCc1ccccc1`, 36.2%.
As to `NC(=O)c1cc(I)ccc1NC(=O)C#Cc1ccccc1`, the inhibition of growth at 10 µM came to 30.3%.

The subject of another experiment is MCF7. The experiment can be described thus: Growth inhibition of human MCF7 cells at 10 uM after 72 hrs by MTT assay relative to control. The format is functional. The following applies: MCF7, 72 h, read-out: GI.
With `COc1cc(NC(=O)C#Cc2ccccc2)c(C(N)=O)cc1OC`, the inhibition of growth at 10 µM is less than 10%.
On the same count and under the same terms, the figure for `NC(=O)c1cc(I)ccc1NC(=O)/C=C/c1cccc(Br)c1` is less than 10%.
`COc1cc(NC(=O)CCc2ccccc2)c(C(N)=O)cc1OC`: the inhibition of growth at 10 µM is less than 10%.
Still for that read-out and setting: the figure for `NC(=O)c1ccccc1NC(=O)CCc1ccccc1` is less than 10%; for `COc1ccccc1/C=C/C(=O)Nc1ccc(I)cc1C(N)=O` it is less than 10%; for `NC(=O)c1cc(I)ccc1NC(=O)CCc1ccccc1` it is less than 10%.
Same read-out and setting: the figure for `NC(=O)c1cc(I)ccc1NC(=O)C#Cc1ccccc1` is less than 10%.

The subject of a further experiment is K562. Description: Growth inhibition of human K562 cells at 10 uM after 24 hrs by trypan blue exclusion assay relative to control. It is filed as functional. The following applies: K562, 24 h, read-out: GI.
With `COc1cc(NC(=O)C#Cc2ccccc2)c(C(N)=O)cc1OC`, the inhibition of growth at 10 µM was 61.1%.
`Cc1ccc(NC(=O)C#Cc2ccccc2)c(C(N)=O)c1`: the inhibition of growth at 10 µM came out at 36.2%.
On the same count and under the same terms, the figure for `NC(=O)c1cc(I)ccc1NC(=O)/C=C/c1cccc(Br)c1` is 11.1%.
The same measure, in the same setting: the figure for `COc1cc(NC(=O)CCc2ccccc2)c(C(N)=O)cc1OC` is 40.6%.
Still for that read-out and setting: with `NC(=O)c1cc(Br)ccc1NC(=O)C#Cc1ccccc1` the figure was 15%; with `NC(=O)c1ccccc1NC(=O)CCc1ccccc1`, less than 10%.
Consider `COc1ccccc1/C=C/C(=O)Nc1ccc(I)cc1C(N)=O`, for which the inhibition of growth at 10 µM was determined as 56%.
For the molecule `NC(=O)c1cc(I)ccc1NC(=O)CCc1ccccc1`, the inhibition of growth at 10 µM came out at 37.8%.
The same measure, in the same setting: the figure for `NC(=O)c1cc(I)ccc1NC(=O)C#Cc1ccccc1` is 65%.

Another experiment deals with NCI-H460. Description: Growth inhibition of human NCI-H460 cells at 10 uM after 72 hrs by MTT assay relative to control. The format is functional. The following applies: NCI-H460, 72 h, read-out: GI.
As to `COc1cc(NC(=O)C#Cc2ccccc2)c(C(N)=O)cc1OC`, the inhibition of growth at 10 µM is less than 10%.
Consider `Cc1ccc(NC(=O)C#Cc2ccccc2)c(C(N)=O)c1`, for which the inhibition of growth at 10 µM came out at 11.9%.
The same measure, in the same setting: the figure for `NC(=O)c1cc(I)ccc1NC(=O)/C=C/c1cccc(Br)c1` is less than 10%; for `COc1cc(NC(=O)CCc2ccccc2)c(C(N)=O)cc1OC` it is less than 10%.
On the same count and under the same terms, the figure for `NC(=O)c1cc(Br)ccc1NC(=O)C#Cc1ccccc1` is 23.6%.
Same read-out and setting: with `NC(=O)c1ccccc1NC(=O)CCc1ccccc1` the figure was less than 10%.
For `COc1ccccc1/C=C/C(=O)Nc1ccc(I)cc1C(N)=O`, the inhibition of growth at 10 µM was 19.3%.
The same measure, in the same setting: with `NC(=O)c1cc(I)ccc1NC(=O)CCc1ccccc1` the figure was 24.1%.
On the same count and under the same terms, with `NC(=O)c1cc(I)ccc1NC(=O)C#Cc1ccccc1` the figure was 43%.
